B1: FRP-1: frizzled related protein, secreted protein that antagonizes the Wnt signaling pathway (protein, UniProt Q8N474 32-314, looked up)
Secreted frizzled-related …: SEYDYVSFQSDIGPYQSGRFYTKPPQCVDIPADLRLCHNVGYKKMVLPNLLEHETMAEVKQQASSWVPLLNKNCHAGTQVFLCSLFAPVCLDRPIYPCRWLCEAVRDSCEPVMQFFGFYWPEMLKCDKFPEGDVCIAMTPPNATEASKPQGTTVCPPCDNELKSEAIIEHLCASEFALRMKIKEVKKENGDKKIVPKKKKPLKLGPIKKKDLKKLVLYLKNGADCPCHQLDNLSHHFLIMGRKVKSQYLLTAIHKWDKKNKEFKNFMKKMKNHECPTFQSVFK

Tests used:
[1] = system: central and peripheral neurons grown in culture; settings: death induced by reduced phosphatidyl inositol pathway activity (Cross et al.); cited from earlier work
GSK-3 = settings: literature report; cited from earlier work
[2] = system: perfused human ocular anterior segments; assay: Outflow rate in perfused human ocular anterior segments maintained in culture
Method: (§1) Recently it has been discovered that frizzled related protein (FRP) is differentially expressed in a number of glaucomatous trabecular meshwork cell lines. […] The decreased flow rate in the cultured anterior segments models an increase in resistance to outflow (increase in intraocular pressure) in intact eye.
Human ocular anterior segments are perfused with Dulbecco's modified Eagle's medium (DMEM) at a constant pressure of 11 mm Hg. The outflow rate of each eye is measured by weighing its reservoir at specified periods. After a stabilization period, the eyes are perfused with either vehicle or FRP-1 (10 μg/ml) and their outflow rates monitored for 2-5 days. […] Inhibitor is added and the anterior segment is perfused for an additional 2-4 days. Outflow rate is measured by weighing its reservoir at specific periods.

β-catenin = β-catenin protein levels in ciliary body and trabecular meshwork of perfused anterior segments; design: species or system human; settings: ciliary body and trabecular meshwork (TM) after FRP-1 perfusion
Description: as §1

| Molecule | protection of neurons from death [1] | GSK-3 inhibition (GSK-3) | also measured |
| --- | --- | --- | --- |
| O=C1NC(=O)C(c2ccccc2[N+](=O)[O-])=C1Nc1ccc(O)c(Cl)c1 [SB-415286] | protected both central and peripheral neurons | – | – |
| CN(C)CCCn1cc(C2=C(c3c[nH]c4ccccc34)C(=O)NC2=O)c2ccccc21 [GF1092] | – | inhibitors of GSK-3 | – |
| Cn1cc(C2=C(c3cn(CCCSC(=N)N)c4ccccc34)C(=O)NC2=O)c2ccccc21 [Ro 31-8220] | – | inhibitors of GSK-3 | – |
| Cn1cc(C2=C(c3ccc(Cl)cc3Cl)C(=O)NC2=O)c2ccccc21 [SB216763] | protected both central and peripheral neurons | – | – |
| B1 | – | – | aqueous humor outflow ([2]; FRP-1 10 μg/ml, constant pressure 11 mm Hg, outflow monitored 2-5 days): decrease in aqueous humor outflow; flowrate ([2]; perfusion of FRP-1 through perfused human ocular anterior segments in culture): decrease in flowrate; β-catenin protein levels (β-catenin): decrease in β-catenin protein levels |
